Assay results from US20050215543A1, “Methods of treating HIV infection” (priority 2004, published 2005).

Legend:
HIV-1 LAI [1] = test: Drug susceptibility assay, MT-2 cells infected with HIV-1 LAI, MTS assay readout (samples involving non-nucleoside RT inhibitors); type: cell-based; conditions: for EC50: Human immunodeficiency virus 1, MT2, 120 h, single drug, MT-2 cells, HIV-1 LAI, MOI 0.005, 5 days, MTS assay (non-nucleoside RT inhibitors); for Combination Indices at % HIV Inhibition (Confidence Interval) 50%: 50% HIV inhibition; for Combination Indices at % HIV Inhibition (Confidence Interval) 50% / Combination Indices at % HIV Inhibition (Confidence Interval) 75% / Combination Indices at % HIV Inhibition (Confidence Interval) 90%: MTS readout, 95% CI in parenthesis; for Combination Indices at % HIV Inhibition (Confidence Interval) 75%: 75% HIV inhibition; for Combination Indices at % HIV Inhibition (Confidence Interval) 90%: 90% HIV inhibition; for Overall Result: two-drug combination with Compound 1, all ratios and effect levels, MT-2/HIV-1 LAI, MTS assay
Procedure: (§1) Virus and cell lines. The T-cell lines, MT-2 and PM-1 were obtained through the AIDS Research and Reference Reagent Program, NIAID, and were contributed by Dr. D. Richman and Dr. R. Gallo, respectively. Both cell lines were cultured in RPMI 1640 medium supplemented with 10% fetal bovine serum, 2 mM L-glutamine and sub-cultured twice a week. The LAI strain of HIV-1 was obtained from the Fred Hutchinson Cancer Research Center, and the Bal strain was from NIH. Both virus stocks were amplified and titered in MT-2 cells (LAI) and PM-1 cells (Bal) using a virus infectivity assay.
(§2) Drug Susceptibility and Cytotoxicity Assays. For drug susceptibility assays, MT-2 cells were infected with HIV-1 LAI (or PM-1 cells with HIV-1 Bal) at an MOI of 0.005, and seeded into 96-well microtiter plates (0.1×10^6 cells/ml) containing serial dilutions of test compounds. […] Each drug ratio consisted of an array of 3-fold serial dilutions, and was performed in quadruplicate. The plates were incubated at 37° C./5% CO2. The MT-2 cells infected with HIV-1 LAI were incubated for 5 days. On day-five post-infection, 20 μl from each well was harvested and quantitated by a reverse transcriptase (RT) assay, or in samples involving non-nucleoside RT inhibitors, an MTS assay. The PM-1 cells infected with HIV-1 Bal and used for studying the combinations with CCR5 inhibitors were incubated for six days. On day-six post-infection, 20 μl from each well was harvested, 20- and 50-fold diluted and quantitated by p24 assay. Cytotoxicity assays were performed using uninfected cells, exposed to the same drug combinations, and incubated for six days. Cell viability was determined by an XTT assay. The CC50 values were calculated by using the exponential form of the median effect equation as mentioned below for calculation of EC50.
(§3) Analysis of Drug Combination Effects. For determination of CI values, drugs were diluted in a fixed ratio and multiple ratios were analyzed. The drug serial dilutions spanned a range of concentrations near the EC50 value of each compound, so that equivalent antiviral activities could be compared. Concentration-response curves were estimated for each individual drug and every combination using the median-effect equation. The equation was fit using a nonlinear regression routine (Proc Nlin) in PC SAS version 8.01 (SAS Institute Inc., SAS Version 8.01, Cary, N.C.: SAS Institute Inc., 1990).
(§4) In this equation, Fa stands for “fraction affected,” and represents the fraction of the viral load that has been inactivated. […] ED50 is drug concentration that is expected to reduce the amount of virus by 50%, and m is a parameter that reflects the slope of the concentration-response curve.
(§5) To assess antiviral effects of different drug combination treatments, combination indices (CIs) were calculated according to Chou and Rideout. The combination index was computed as CI=[D]1/[Dm]1+[D]2/[Dm]2
(§6) In this equation [Dm]1 and [Dm]2 are the concentrations of drugs that would individually produce a specific level of effect, while [D]1 and [D]2 are the concentrations of drugs in combination that would produce the same level of effect.
(§7) Theoretically, additivity is implied if the CI is equal to one, synergy if the CI is less than one, and antagonism if the CI is greater than one. […] At best, we can construct a range that contains the likely values for the CI, given the noise in the data. In this report, these ranges are reported in parentheses next to each point estimate of the CI. […] If the range fell entirely above 1.0, we would infer antagonistic behavior. If the range were to include 1.0, we would infer additivity.
(§8) In carrying out the combination experiments below, the EC50 for Compound 1 and each comparator compound was determined during the course of each study, and used in the subsequent data analysis.

HIV-1 LAI [2] = test: microbe, parasite or virus in culture; conditions: for EC50: Human immunodeficiency virus 1, MT2, 120 h; for Combination Indices at % HIV Inhibition (Confidence Interval) 50%: 50% HIV inhibition; for Combination Indices at % HIV Inhibition (Confidence Interval) 50% / Combination Indices at % HIV Inhibition (Confidence Interval) 75% / Combination Indices at % HIV Inhibition (Confidence Interval) 90%: 95% CI in parenthesis; for Combination Indices at % HIV Inhibition (Confidence Interval) 75%: 75% HIV inhibition; for Combination Indices at % HIV Inhibition (Confidence Interval) 90%: 90% HIV inhibition; for Overall Result: two-drug combination with Compound 1, all ratios and effect levels, MT-2/HIV-1 LAI, RT assay
Procedure: as §1, §2, §3, §4, §5, §6, §7, §8

[3] = combination with Compound 1, EC50 ratio 1:1
[4] = combination with Compound 1, EC50 ratio 1:2.5
[5] = combination with Compound 1, EC50 ratio 2.5:1
[6] = combination with Compound 1, EC50 ratio 1:1 (Compound 1:comparator)

SMILES | EC50 (HIV-1 LAI [1]) | Combination Indices at % HIV Inhibition (Confidence Interval) 50% (HIV-1 LAI [1]; [3]) | Combination Indices at % HIV Inhibition (Confidence Interval) 75% (HIV-1 LAI [1]; [3]) | Combination Indices at % HIV Inhibition (Confidence Interval) 90% (HIV-1 LAI [1]; [3]) | Combination Indices at % HIV Inhibition (Confidence Interval) 50% (HIV-1 LAI [1]; [4]) | Combination Indices at % HIV Inhibition (Confidence Interval) 75% (HIV-1 LAI [1]; [4]) | Combination Indices at % HIV Inhibition (Confidence Interval) 90% (HIV-1 LAI [1]; [4]) | Combination Indices at % HIV Inhibition (Confidence Interval) 50% (HIV-1 LAI [1]; [5]) | Combination Indices at % HIV Inhibition (Confidence Interval) 75% (HIV-1 LAI [1]; [5]) | EC50 (HIV-1 LAI [2]) | Combination Indices at % HIV Inhibition (Confidence Interval) 50% (HIV-1 LAI [2]; [6]) | Combination Indices at % HIV Inhibition (Confidence Interval) 75% (HIV-1 LAI [2]; [3]) | Combination Indices at % HIV Inhibition (Confidence Interval) 90% (HIV-1 LAI [2]; [3]) | Combination Indices at % HIV Inhibition (Confidence Interval) 50% (HIV-1 LAI [2]; [4]) | Combination Indices at % HIV Inhibition (Confidence Interval) 75% (HIV-1 LAI [2]; [4]) | Combination Indices at % HIV Inhibition (Confidence Interval) 90% (HIV-1 LAI [2]; [4]) | Combination Indices at % HIV Inhibition (Confidence Interval) 50% (HIV-1 LAI [2]; [5]) | Combination Indices at % HIV Inhibition (Confidence Interval) 75% (HIV-1 LAI [2]; [5]) | Combination Indices at % HIV Inhibition (Confidence Interval) 90% (HIV-1 LAI [2]; [5]) | Overall Result (HIV-1 LAI [2]) | also measured
Cc1ccnc2c1NC(=O)c1cccnc1N2C1CC1 [Nevirapine, nevirapine] | 63 nM | 0.87 (0.79, 0.94) | 0.80 (0.69, 0.90) | 0.74 (0.58, 0.89) | 0.85 (0.74, 0.96) | 0.68 (0.58, 0.79) | 0.55 (0.43, 0.66) | 0.71 (0.62, 0.81) | 0.63 (0.52, 0.73) | – | – | – | – | – | – | – | – | – | – | – | Combination Indices at % HIV Inhibition (Confidence Interval) 90% (HIV-1 LAI [1]; [5]): 0.56 (0.42, 0.70); Overall Result (HIV-1 LAI [1]): Synergistic; Overall Result (HIV-1 LAI [1]; listed as nevirapine): strong synergistic effects
CC(C)Nc1cccnc1N1CCN(C(=O)c2cc3cc(NS(C)(=O)=O)ccc3[nH]2)CC1 [Delavirdine, delavirdine] | 1.6 nM | 0.11 (0.00, 0.26) | 0.09 (0.02, 0.15) | 0.09 (0.00, 0.21) | 0.32 (0.20, 0.43) | 0.09 (0.08, 0.10) | 0.03 (0.02, 0.03) | 0.28 (0.22, 0.35) | 0.17 (0.14, 0.20) | – | – | – | – | – | – | – | – | – | – | – | Combination Indices at % HIV Inhibition (Confidence Interval) 90% (HIV-1 LAI [1]; [5]): 0.16 (0.11, 0.35); Overall Result (HIV-1 LAI [1]): Synergistic; Overall Result (HIV-1 LAI [1]; listed as delavirdine): strong synergistic effects
Nc1ccn([C@H]2CC[C@@H](CO)O2)c(=O)n1 [Zalcitabine, zalcitabine] | – | – | – | – | – | – | – | – | – | 110 nM | 0.55 (0.41, 0.70) | 0.57 (0.36, 0.77) | 0.59 (0.25, 0.92) | 0.87 (0.65, 1.08) | 0.66 (0.44, 0.89) | 0.51 (0.24, 0.78) | 0.68 (0.48, 0.89) | 0.64 (0.37, 0.90) | 0.59 (0.20, 0.98) | Synergistic | Overall Result (HIV-1 LAI [2]; listed as zalcitabine): consistent synergy at all effective levels and concentration ratios
Cc1cn([C@H]2C[C@H](N=[N+]=[N-])[C@@H](CO)O2)c(=O)[nH]c1=O [Zidovudine, zidovudine] | – | – | – | – | – | – | – | – | – | 3 nM | 1.06 (0.85, 1.27) | 0.99 (0.72, 1.26) | 0.93 (0.53, 1.34) | 1.21 (1.01, 1.40) | 0.95 (0.74, 1.16) | 0.76 (0.50, 1.02) | 0.81 (0.69, 0.92) | 0.70 (0.56, 0.83) | 0.60 (0.42, 0.79) | Additive- | Overall Result (HIV-1 LAI [2]; listed as zidovudine): additive to synergistic
CC(C)(C)NC(=O)[C@@H]1CN(Cc2cccnc2)CCN1C[C@@H](O)C[C@@H](Cc1ccccc1)C(=O)N[C@H]1c2ccccc2C[C@H]1O [Indinavir, indinavir] | – | – | – | – | – | – | – | – | – | 0.7 nM | 0.55 (0.46, 0.64) | 0.57 (0.45, 0.70) | 0.61 (0.39, 0.83) | 0.35 (0.24, 0.47) | 0.21 (0.17, 0.24) | 0.32 (0.20, 0.43) | 0.31 (0.22, 0.40) | 0.41 (0.27, 0.55) | 0.54 (0.20, 0.87) | Synergistic | Overall Result (HIV-1 LAI [2]; listed as indinavir): strong synergistic effects
